The source of these data is publication PMC7827406, “Structure–Activity Relationship (SAR) Study of Spautin-1 to Entail the Discovery of Novel NEK4 Inhibitors” (International Journal of Molecular Sciences, 2021).

What all share (assay): biochemical
What all share (design): Eurofins KinaseProfiler full panel at Km ATP, residual kinase activity (%) relative to DMSO

One test addresses FGFR1(V561M)(h) (Homo sapiens, UniProt P11362, V561M). A digest of the protocol:
(§1)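 Two 10 µM single-concentration screens were run: a competition-binding screen, in which DNA-tagged kinase bound to immobilized ligands was quantified by qPCR, and a radiometric activity panel at Km ATP. Each is expressed as residual kinase activity (%).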

A further test addresses T1, MAP4K3(h) (Homo sapiens, UniProt Q8IVH8).
T1 sequence (Q8IVH8 1-894): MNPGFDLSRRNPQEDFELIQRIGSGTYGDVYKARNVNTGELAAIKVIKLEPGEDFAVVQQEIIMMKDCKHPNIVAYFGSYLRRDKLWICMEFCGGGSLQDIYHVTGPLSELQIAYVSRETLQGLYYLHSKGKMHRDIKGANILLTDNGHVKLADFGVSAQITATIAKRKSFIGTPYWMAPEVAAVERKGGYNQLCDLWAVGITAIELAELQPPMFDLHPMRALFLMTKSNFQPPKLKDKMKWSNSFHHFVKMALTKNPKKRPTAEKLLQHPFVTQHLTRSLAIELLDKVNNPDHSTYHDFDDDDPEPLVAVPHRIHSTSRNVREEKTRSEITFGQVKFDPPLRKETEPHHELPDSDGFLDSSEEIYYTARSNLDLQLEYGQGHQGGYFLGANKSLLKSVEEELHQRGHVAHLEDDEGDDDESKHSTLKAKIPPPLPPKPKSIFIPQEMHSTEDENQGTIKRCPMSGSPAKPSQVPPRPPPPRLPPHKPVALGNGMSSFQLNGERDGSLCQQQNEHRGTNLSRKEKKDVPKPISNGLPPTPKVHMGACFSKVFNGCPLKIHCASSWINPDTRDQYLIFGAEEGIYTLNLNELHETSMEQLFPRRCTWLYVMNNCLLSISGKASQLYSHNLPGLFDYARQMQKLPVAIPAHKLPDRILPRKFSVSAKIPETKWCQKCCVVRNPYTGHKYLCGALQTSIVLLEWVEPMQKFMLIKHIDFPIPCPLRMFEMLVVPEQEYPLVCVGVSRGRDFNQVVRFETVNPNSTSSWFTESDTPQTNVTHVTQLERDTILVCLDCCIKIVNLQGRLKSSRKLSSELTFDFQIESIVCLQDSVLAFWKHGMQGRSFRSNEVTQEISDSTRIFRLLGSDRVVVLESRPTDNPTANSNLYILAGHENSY
An outline of the steps:
as §1

A further test addresses T2, DNA-PK(h) (Homo sapiens, UniProt P78527).
T2 construct: gene PRKDC
A digest of the protocol: as §1

The target of the next test is T3, PKG1α(h) (Homo sapiens, UniProt Q13976).
T3 construct: gene PRKG1; isoform 1alpha
T3 sequence (Q13976 1-671): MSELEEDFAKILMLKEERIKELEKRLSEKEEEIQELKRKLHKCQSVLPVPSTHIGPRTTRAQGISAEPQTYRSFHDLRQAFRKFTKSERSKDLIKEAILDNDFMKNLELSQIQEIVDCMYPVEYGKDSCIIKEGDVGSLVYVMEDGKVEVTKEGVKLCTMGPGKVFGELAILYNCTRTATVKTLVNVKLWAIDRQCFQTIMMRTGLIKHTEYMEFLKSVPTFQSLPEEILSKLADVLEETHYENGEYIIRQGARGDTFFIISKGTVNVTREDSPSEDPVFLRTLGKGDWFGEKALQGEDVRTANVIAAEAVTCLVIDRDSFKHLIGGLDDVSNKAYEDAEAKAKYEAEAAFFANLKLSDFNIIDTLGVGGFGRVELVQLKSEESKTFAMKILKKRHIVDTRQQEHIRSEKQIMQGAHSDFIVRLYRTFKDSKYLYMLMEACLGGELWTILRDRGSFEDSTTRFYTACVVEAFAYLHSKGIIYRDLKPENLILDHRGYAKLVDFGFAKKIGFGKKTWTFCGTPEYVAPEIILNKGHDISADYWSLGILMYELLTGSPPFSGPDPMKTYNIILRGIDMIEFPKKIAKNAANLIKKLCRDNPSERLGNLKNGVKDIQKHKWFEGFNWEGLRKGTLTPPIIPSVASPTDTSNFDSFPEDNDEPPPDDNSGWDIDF
An outline of the steps:
as §1

The target of the next test is T4, PKCι(h) (Homo sapiens, UniProt P41743).
T4 construct: gene PRKCI
T4 sequence (P41743 1-596): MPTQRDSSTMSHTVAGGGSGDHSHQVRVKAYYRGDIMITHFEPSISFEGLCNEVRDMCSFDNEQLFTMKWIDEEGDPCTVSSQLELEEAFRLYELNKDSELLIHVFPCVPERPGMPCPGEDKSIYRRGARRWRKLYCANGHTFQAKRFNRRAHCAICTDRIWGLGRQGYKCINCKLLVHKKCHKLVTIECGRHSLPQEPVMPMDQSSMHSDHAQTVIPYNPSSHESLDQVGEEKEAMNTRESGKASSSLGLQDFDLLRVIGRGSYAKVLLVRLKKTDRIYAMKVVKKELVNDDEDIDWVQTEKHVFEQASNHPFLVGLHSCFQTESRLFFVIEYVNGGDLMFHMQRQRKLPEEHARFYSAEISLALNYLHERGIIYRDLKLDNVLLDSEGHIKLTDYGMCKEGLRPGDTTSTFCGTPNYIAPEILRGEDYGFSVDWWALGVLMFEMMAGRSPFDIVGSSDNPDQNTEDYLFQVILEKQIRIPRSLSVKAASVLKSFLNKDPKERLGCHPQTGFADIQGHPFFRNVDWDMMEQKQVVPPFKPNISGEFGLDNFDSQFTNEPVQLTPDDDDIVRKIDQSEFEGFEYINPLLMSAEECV
A digest of the protocol:
as §1

Setting [1] is: read-out: Residual activity (%) Spautin-1 5aa.
The mark [2] stands for this setting: read-out: Residual activity (%) 5as.
Where [3] appears, read: read-out: Residual activity (%) 5at.
The mark [4] stands for this setting: read-out: Residual activity (%) 5ay.

Molecules are shown by their SMILES. Read-outs that look alike come from different tables or passages of the source.

T2 sequence (P78527 whole entry): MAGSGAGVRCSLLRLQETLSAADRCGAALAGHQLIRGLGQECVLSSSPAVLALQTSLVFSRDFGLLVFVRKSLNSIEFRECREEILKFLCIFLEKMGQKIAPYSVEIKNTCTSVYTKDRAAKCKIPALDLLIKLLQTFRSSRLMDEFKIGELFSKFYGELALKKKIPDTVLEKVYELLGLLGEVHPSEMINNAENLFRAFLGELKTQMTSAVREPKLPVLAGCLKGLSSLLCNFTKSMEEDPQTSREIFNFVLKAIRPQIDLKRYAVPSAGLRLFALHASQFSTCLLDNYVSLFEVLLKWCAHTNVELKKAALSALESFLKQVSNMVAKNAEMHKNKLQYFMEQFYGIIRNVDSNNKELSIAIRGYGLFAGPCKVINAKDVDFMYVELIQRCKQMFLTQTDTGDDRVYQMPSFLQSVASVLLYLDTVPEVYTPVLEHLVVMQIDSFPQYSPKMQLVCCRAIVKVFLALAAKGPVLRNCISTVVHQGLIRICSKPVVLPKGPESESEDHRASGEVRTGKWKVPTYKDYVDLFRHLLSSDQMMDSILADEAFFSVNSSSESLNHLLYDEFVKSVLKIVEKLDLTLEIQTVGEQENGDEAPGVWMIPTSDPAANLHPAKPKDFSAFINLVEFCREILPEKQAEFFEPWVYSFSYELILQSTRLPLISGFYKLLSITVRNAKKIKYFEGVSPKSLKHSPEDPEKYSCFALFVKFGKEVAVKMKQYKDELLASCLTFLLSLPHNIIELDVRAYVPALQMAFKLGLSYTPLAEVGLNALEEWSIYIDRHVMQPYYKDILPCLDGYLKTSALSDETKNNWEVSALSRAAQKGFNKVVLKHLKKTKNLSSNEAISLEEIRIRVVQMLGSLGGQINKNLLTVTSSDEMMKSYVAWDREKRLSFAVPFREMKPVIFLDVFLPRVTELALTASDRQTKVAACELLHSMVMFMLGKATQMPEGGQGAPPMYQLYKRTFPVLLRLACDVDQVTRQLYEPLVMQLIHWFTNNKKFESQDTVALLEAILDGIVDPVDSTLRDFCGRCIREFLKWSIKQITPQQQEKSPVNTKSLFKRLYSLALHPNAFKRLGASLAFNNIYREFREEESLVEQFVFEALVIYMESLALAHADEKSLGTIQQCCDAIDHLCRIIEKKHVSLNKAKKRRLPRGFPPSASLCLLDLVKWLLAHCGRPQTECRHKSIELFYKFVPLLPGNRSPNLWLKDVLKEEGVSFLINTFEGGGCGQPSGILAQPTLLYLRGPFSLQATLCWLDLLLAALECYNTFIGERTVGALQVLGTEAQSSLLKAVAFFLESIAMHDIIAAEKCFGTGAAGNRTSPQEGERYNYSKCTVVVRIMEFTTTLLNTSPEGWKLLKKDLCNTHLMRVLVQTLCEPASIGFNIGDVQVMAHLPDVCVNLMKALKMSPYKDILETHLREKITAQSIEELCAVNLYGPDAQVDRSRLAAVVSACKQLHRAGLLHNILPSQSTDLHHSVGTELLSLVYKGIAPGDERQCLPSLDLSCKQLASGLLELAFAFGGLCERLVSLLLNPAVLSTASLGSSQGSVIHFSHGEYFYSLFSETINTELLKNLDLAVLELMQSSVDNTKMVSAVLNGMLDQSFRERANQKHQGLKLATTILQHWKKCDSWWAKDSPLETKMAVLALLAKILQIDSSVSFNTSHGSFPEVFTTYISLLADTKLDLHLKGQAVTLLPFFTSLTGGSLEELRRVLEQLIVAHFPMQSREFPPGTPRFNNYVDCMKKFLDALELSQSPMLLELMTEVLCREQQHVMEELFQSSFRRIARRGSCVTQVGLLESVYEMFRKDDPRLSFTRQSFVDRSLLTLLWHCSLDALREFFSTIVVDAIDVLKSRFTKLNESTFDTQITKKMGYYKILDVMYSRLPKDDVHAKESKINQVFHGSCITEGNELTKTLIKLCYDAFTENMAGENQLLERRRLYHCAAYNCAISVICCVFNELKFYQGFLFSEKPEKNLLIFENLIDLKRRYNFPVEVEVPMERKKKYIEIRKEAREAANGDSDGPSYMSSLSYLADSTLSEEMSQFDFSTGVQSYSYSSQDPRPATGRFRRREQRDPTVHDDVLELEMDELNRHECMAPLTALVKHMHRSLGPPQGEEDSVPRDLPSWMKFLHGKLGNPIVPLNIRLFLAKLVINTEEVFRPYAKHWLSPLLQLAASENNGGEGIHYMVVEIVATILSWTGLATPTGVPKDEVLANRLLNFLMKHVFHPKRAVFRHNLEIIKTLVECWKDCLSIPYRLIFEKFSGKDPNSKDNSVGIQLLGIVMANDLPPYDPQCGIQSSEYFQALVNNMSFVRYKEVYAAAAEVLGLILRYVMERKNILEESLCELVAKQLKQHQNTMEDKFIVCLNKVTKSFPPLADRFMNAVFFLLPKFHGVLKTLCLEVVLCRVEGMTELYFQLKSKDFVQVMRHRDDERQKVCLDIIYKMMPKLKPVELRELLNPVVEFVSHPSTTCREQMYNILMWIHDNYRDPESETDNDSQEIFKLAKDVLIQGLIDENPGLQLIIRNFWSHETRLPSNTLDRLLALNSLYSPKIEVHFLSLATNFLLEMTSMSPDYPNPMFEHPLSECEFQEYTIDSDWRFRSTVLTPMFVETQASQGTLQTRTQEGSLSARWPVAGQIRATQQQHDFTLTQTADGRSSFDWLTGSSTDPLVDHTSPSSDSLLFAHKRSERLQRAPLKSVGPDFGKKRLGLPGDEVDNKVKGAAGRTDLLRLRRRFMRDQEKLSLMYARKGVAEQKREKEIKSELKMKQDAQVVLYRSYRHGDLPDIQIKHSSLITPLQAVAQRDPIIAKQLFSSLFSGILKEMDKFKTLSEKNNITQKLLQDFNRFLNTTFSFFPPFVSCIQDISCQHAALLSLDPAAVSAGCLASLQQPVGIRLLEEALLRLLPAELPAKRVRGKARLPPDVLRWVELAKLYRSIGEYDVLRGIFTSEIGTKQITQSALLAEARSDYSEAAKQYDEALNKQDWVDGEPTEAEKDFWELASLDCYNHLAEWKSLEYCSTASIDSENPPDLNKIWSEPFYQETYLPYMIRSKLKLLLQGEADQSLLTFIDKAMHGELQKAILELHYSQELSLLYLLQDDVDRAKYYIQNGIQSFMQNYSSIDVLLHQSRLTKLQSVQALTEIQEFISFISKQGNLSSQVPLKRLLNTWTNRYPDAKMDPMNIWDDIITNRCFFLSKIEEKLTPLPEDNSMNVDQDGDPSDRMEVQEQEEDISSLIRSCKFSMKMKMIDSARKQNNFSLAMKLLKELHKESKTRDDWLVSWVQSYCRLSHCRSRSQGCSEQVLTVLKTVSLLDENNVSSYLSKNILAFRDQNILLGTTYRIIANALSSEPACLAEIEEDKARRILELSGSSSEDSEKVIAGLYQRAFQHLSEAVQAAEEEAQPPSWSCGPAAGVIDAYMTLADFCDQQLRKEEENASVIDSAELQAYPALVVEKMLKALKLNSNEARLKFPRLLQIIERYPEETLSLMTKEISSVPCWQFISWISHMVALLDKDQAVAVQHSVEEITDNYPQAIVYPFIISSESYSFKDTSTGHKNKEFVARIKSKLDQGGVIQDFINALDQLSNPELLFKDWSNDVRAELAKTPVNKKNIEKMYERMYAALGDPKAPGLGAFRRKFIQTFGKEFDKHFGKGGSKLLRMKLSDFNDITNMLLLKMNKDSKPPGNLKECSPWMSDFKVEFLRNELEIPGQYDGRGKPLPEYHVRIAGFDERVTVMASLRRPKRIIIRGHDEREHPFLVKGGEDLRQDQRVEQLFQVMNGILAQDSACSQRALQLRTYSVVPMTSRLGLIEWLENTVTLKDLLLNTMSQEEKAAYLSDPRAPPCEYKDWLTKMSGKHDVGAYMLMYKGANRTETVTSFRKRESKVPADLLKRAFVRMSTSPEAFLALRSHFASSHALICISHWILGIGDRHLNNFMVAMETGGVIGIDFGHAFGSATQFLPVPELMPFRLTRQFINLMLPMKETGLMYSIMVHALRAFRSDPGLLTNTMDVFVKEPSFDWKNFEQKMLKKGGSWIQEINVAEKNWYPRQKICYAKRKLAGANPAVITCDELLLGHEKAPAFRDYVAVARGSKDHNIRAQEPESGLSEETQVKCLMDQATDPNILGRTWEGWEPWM
Sequence of FGFR1(V561M)(h) (P11362 whole entry V561M): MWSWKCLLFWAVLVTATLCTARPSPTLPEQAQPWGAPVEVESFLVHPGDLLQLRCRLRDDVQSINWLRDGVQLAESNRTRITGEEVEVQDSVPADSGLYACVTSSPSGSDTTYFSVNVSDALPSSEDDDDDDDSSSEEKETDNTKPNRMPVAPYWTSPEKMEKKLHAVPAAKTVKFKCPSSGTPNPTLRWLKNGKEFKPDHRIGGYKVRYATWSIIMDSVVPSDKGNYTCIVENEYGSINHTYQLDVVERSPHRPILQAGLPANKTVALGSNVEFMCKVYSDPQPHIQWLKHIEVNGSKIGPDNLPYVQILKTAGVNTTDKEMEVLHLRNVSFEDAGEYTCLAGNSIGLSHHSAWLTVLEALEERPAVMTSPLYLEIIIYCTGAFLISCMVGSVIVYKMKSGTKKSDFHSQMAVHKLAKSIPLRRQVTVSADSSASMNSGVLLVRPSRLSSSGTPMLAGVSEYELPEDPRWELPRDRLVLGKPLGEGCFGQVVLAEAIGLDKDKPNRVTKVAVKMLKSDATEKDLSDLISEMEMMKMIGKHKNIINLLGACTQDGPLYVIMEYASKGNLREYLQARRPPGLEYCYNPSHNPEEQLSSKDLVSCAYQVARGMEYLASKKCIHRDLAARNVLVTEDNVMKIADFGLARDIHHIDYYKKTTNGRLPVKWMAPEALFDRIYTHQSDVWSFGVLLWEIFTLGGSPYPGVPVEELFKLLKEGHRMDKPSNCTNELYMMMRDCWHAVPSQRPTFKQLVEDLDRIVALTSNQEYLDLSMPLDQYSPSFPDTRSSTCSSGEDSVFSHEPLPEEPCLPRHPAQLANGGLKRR

As to `Fc1ccc(CNc2ncnc3ccc(F)cc23)cc1` [5aa, 6-Fluoro-N-(4-fluorobenzyl)-4-Quinazolinamine], the remaining activity at 10 µM was determined as 123% at FGFR1(V561M)(h) (setting [1]); 99% on MAP4K3(h) (setting [1]); 89% at DNA-PK(h) (setting [1]); 91% at PKG1α(h) (setting [1]); 84% at PKCι(h) (setting [1]).

For `Fc1ccc(CCNc2ncnc3ccc(F)cc23)cc1` [5as, 6-Fluoro-N-[2-(4-Fluorophenyl)Ethyl]-4-Quinazolinamine], the remaining activity at 10 µM at FGFR1(V561M)(h) (setting [2]) came out at 100%; on MAP4K3(h) (setting [2]), 87%; at DNA-PK(h) (setting [2]), 74%; at PKG1α(h) (setting [2]) it was 96%; at PKCι(h) (setting [2]), 114%.

As for `Fc1ccc2ncnc(NCCc3ccc(Cl)cc3)c2c1` [5at, N-[2-(4-Chlorophenyl)Ethyl]-6-Fluoro-4-Quinazolinamine], the remaining activity at 10 µM on FGFR1(V561M)(h) (setting [3]) turned out to be 95%; at MAP4K3(h) (setting [3]) it was 93%; on DNA-PK(h) (setting [3]) it was 85%; at PKG1α(h) (setting [3]), 93%; at PKCι(h) (setting [3]), 98%.

For `COc1ccc2ncnc(Nc3cccc(F)c3)c2c1` [5ay, N-(3-Fluorophenyl)-6-Methoxy-4-Quinazolinamine], the remaining activity at 10 µM was 108% at FGFR1(V561M)(h) (setting [4]); 87% at MAP4K3(h) (setting [4]); 72% on DNA-PK(h) (setting [4]); 95% at PKG1α(h) (setting [4]); 89% at PKCι(h) (setting [4]).
